Laboratory results as given in ChEMBL document CHEMBL3992518, “Peptide Macrocycle Inhibitor of Coagulation Factor XII with Subnanomolar Affinity and High Target Selectivity” (J Med Chem, 2017).
*1 amine or outer side, *2 acyl side, *3 side chain or, on linkers, in order; H or OH if unused. Where a SMILES comes first, the peptide text is derived from it. Bridges are numbered along the chain shown (N, C = ends). [ ]: non-standard residue; d: D form. TATA = O=C(CC[*:1])N1CN(C(=O)CC[*:2])CN(C(=O)CC[*:3])C1; hArg = N=C(N)NCCCC[C@H](N)C(=O)O; tBuAla = CC(C)(C)C[C@H](N)C(=O)O; Agb = N=C(N)NCC[C@H](N)C(=O)O; hLys = NCCCCC[C@H](N)C(=O)O

Each molecule was assayed against T1, Coagulation factor XII (Homo sapiens, UniProt P00748) (assay: Inhibition of human beta factor 12a using fluorogenic substrate Boc-Gln-Gly-Arg-AMC preincubated for 10 mins followed by addition of substrate measured every min for 30 mins).
T1 sequence (P00748 whole entry): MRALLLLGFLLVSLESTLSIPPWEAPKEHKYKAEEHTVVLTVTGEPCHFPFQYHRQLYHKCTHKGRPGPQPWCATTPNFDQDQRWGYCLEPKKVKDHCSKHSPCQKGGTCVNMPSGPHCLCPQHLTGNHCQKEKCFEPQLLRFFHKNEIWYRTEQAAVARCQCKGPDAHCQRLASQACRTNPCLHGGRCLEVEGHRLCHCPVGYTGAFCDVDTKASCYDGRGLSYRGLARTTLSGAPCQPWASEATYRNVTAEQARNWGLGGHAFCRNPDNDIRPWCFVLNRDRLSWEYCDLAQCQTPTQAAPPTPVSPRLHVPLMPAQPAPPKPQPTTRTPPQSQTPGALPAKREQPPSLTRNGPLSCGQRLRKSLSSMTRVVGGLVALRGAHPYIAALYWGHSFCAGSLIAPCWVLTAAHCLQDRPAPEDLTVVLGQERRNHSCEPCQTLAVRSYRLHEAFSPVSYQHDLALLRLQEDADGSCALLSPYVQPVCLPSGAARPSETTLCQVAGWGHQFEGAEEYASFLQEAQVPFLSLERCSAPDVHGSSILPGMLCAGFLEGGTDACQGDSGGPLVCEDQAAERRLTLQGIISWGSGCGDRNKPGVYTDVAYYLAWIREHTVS

SMILES | Ki
CC(C)C[C@@H]1NC(=O)[C@H](CCCNC(=N)N)NC(=O)[C@H](Cc2ccccc2)NC(=O)[C@@H](NC(=O)[C@@H](N)CCCNC(=N)N)CSCCC(=O)N2CN3CN(C2)C(=O)CCSC[C@H](NC(=O)[C@@H]2CCCN2C1=O)C(=O)N[C@@H](CCCNC(=N)N)C(=O)N[C@@H](CCC(N)=O)C(=O)N[C@@H](C(C)C)C(=O)N[C@@H](CCCNC(=N)N)C(=O)N[C@H](C(=O)N[C@@H](CCCNC(=N)N)C(=O)N[C@@H](Cc1c[nH]c2ccccc12)C(=O)O)CSCCC3=O (H-RCFRLPCRQVRCRW-OH; linker 2-7-12 via TATA) | 326 nM
CC(C)C[C@@H]1NC(=O)[C@H](CCC(N)=O)NC(=O)[C@H](CCCNC(=N)N)NC(=O)[C@@H]2CSCCC(=O)N3CN(CN(C3)C(=O)CCSC[C@H](NC(=O)[C@@H](N)CCCNC(=N)N)C(=O)N[C@@H](CCC3CCCCC3)C(=O)N[C@@H](CCCNC(=N)N)C(=O)N[C@@H](CC(C)C)C(=O)N3CCC[C@H]3C(=O)N2)C(=O)CCSC[C@@H](C(=O)N[C@@H](CCCNC(=N)N)C(=O)N[C@@H](Cc2c[nH]c3ccccc23)C(=O)O)NC(=O)[C@H](CCCNC(=N)N)NC1=O | 290 nM
CC(C)C[C@@H]1NC(=O)[C@H](CCC(N)=O)NC(=O)[C@H](CCCNC(=N)N)NC(=O)[C@@H]2CSCCC(=O)N3CN(CN(C3)C(=O)CCSC[C@H](NC(=O)[C@@H](N)CCCNC(=N)N)C(=O)N[C@@H](Cc3ccc(F)cc3)C(=O)N[C@@H](CCCNC(=N)N)C(=O)N[C@@H](CC(C)C)C(=O)N3CCC[C@H]3C(=O)N2)C(=O)CCSC[C@@H](C(=O)N[C@@H](CCCNC(=N)N)C(=O)N[C@@H](Cc2c[nH]c3ccccc23)C(=O)O)NC(=O)[C@H](CCCNC(=N)N)NC1=O | 0.89 nM
CC(C)C[C@@H]1NC(=O)[C@H](CCC(N)=O)NC(=O)[C@H](CCCNC(=N)N)NC(=O)[C@@H]2CSCCC(=O)N3CN(CN(C3)C(=O)CCSC[C@H](N)C(=O)N[C@@H](Cc3ccccc3)C(=O)N[C@@H](CCCNC(=N)N)C(=O)N[C@@H](CC(C)C)C(=O)N3CCC[C@H]3C(=O)N2)C(=O)CCSC[C@@H](C(=O)N[C@@H](CCCNC(=N)N)C(=O)O)NC(=O)[C@H](CCCNC(=N)N)NC1=O (H-CFRLPCRQLRCR-OH; linker 1-6-11 via TATA) | 330 nM
CC(C)C[C@@H]1NC(=O)[C@H](CCC(N)=O)NC(=O)[C@H](CCCNC(=N)N)NC(=O)[C@@H]2CSCCC(=O)N3CN(CN(C3)C(=O)CCSC[C@H](NC(=O)[C@@H](N)CCCNC(=N)N)C(=O)N[C@@H](Cc3ccccc3)C(=O)N[C@@H](CCCCCN)C(=O)N[C@@H](CC(C)C)C(=O)N3CCC[C@H]3C(=O)N2)C(=O)CCSC[C@@H](C(=O)N[C@@H](CCCNC(=N)N)C(=O)N[C@@H](Cc2c[nH]c3ccccc23)C(=O)O)NC(=O)[C@H](CCCNC(=N)N)NC1=O (H-RCF[hLys]LPCRQLRCRW-OH; linker 2-7-12 via TATA) | 51 nM
CC(C)C[C@@H]1NC(=O)[C@H](CCC(N)=O)NC(=O)[C@H](CCCNC(=N)N)NC(=O)[C@@H]2CSCCC(=O)N3CN(CN(C3)C(=O)CCSC[C@H](NC(=O)[C@@H](N)CCCNC(=N)N)C(=O)N[C@@H](Cc3ccccc3)C(=O)N[C@@H](CCNC(=N)N)C(=O)N[C@@H](CC(C)C)C(=O)N3CCC[C@H]3C(=O)N2)C(=O)CCSC[C@@H](C(=O)N[C@@H](CCCNC(=N)N)C(=O)N[C@@H](Cc2c[nH]c3ccccc23)C(=O)O)NC(=O)[C@H](CCCNC(=N)N)NC1=O (H-RCF[Agb]LPCRQLRCRW-OH; linker 2-7-12 via TATA) | 156 nM
CC(C)C[C@@H]1NC(=O)[C@H](CCC(N)=O)NC(=O)[C@H](CCCNC(=N)N)NC(=O)[C@@H]2CSCCC(=O)N3CN(CN(C3)C(=O)CCSC[C@H](NC(=O)[C@@H](N)CCCNC(=N)N)C(=O)N[C@@H](Cc3ccccc3)C(=O)N[C@@H](CCCNC(=N)N)C(=O)N[C@@H](CC(C)C)C(=O)N[C@@H](CC(N)=O)C(=O)N2)C(=O)CCSC[C@@H](C(=O)N[C@@H](CCCNC(=N)N)C(=O)N[C@@H](Cc2c[nH]c3ccccc23)C(=O)O)NC(=O)[C@H](CCCNC(=N)N)NC1=O (H-RCFRLNCRQLRCRW-OH; linker 2-7-12 via TATA) | 104 nM
CC(C)C[C@@H]1NC(=O)[C@H](CC(=O)O)NC(=O)[C@H](CCCNC(=N)N)NC(=O)[C@@H]2CSCCC(=O)N3CN(CN(C3)C(=O)CCSC[C@H](NC(=O)[C@@H](N)CCCNC(=N)N)C(=O)N[C@@H](Cc3ccccc3)C(=O)N[C@@H](CCCNC(=N)N)C(=O)N[C@@H](CC(C)C)C(=O)N3CCC[C@H]3C(=O)N2)C(=O)CCSC[C@@H](C(=O)N[C@@H](CCCNC(=N)N)C(=O)N[C@@H](Cc2c[nH]c3ccccc23)C(=O)O)NC(=O)[C@H](CCCNC(=N)N)NC1=O (H-RCFRLPCRDLRCRW-OH; linker 2-7-12 via TATA) | 550 nM
CC(C)C[C@@H]1NC(=O)[C@H](CCC(N)=O)NC(=O)[C@H](CCCNC(=N)N)NC(=O)[C@@H]2CSCCC(=O)N3CN(CN(C3)C(=O)CCSC[C@H](NC(=O)[C@@H](N)CCCNC(=N)N)C(=O)N[C@@H](Cc3ccccc3)C(=O)N[C@@H](CCCNC(=N)N)C(=O)N[C@@H](C(C)C)C(=O)N3CCC[C@H]3C(=O)N2)C(=O)CCSC[C@@H](C(=O)N[C@@H](CCCNC(=N)N)C(=O)N[C@@H](Cc2c[nH]c3ccccc23)C(=O)O)NC(=O)[C@H](CCCNC(=N)N)NC1=O (H-RCFRVPCRQLRCRW-OH; linker 2-7-12 via TATA) | 570 nM
CC(C)C[C@@H]1NC(=O)[C@H](CCC(N)=O)NC(=O)[C@H](CCCNC(=N)N)NC(=O)[C@@H]2CSCCC(=O)N3CN(CN(C3)C(=O)CCSC[C@H](NC(=O)[C@@H](N)CCCNC(=N)N)C(=O)N[C@@H](Cc3ccccc3)C(=O)N[C@@H](CCCCNC(=N)N)C(=O)N[C@@H](CC(C)C)C(=O)N3CCC[C@H]3C(=O)N2)C(=O)CCSC[C@@H](C(=O)N[C@@H](CCCNC(=N)N)C(=O)N[C@@H](Cc2c[nH]c3ccccc23)C(=O)O)NC(=O)[C@H](CCCNC(=N)N)NC1=O (H-RCF[hArg]LPCRQLRCRW-OH; linker 2-7-12 via TATA) | 71 nM
CC(C)C[C@@H]1NC(=O)[C@H](CCC(N)=O)NC(=O)[C@H](CCCNC(=N)N)NC(=O)[C@@H]2CSCCC(=O)N3CN(CN(C3)C(=O)CCSC[C@H](NC(=O)[C@@H](N)CCCNC(=N)N)C(=O)N[C@@H](Cc3c[nH]c4ccccc34)C(=O)N[C@@H](CCCNC(=N)N)C(=O)N[C@@H](CC(C)C)C(=O)N3CCC[C@H]3C(=O)N2)C(=O)CCSC[C@@H](C(=O)N[C@@H](CCCNC(=N)N)C(=O)N[C@@H](Cc2c[nH]c3ccccc23)C(=O)O)NC(=O)[C@H](CCCNC(=N)N)NC1=O (H-RCWRLPCRQLRCRW-OH; linker 2-7-12 via TATA) | 12 nM
Cc1ccc(C[C@@H]2NC(=O)[C@@H](NC(=O)[C@@H](N)CCCNC(=N)N)CSCCC(=O)N3CN4CN(C3)C(=O)CCSC[C@H](NC(=O)[C@@H]3CCCN3C(=O)[C@H](CC(C)C)NC(=O)[C@H](CCCNC(=N)N)NC2=O)C(=O)N[C@@H](CCCNC(=N)N)C(=O)N[C@@H](CCC(N)=O)C(=O)N[C@@H](CC(C)C)C(=O)N[C@@H](CCCNC(=N)N)C(=O)N[C@H](C(=O)N[C@@H](CCCNC(=N)N)C(=O)N[C@@H](Cc2c[nH]c3ccccc23)C(=O)O)CSCCC4=O)cc1 | 39 nM
CSCC[C@@H]1NC(=O)[C@H](CCCNC(=N)N)NC(=O)[C@H](Cc2ccccc2)NC(=O)[C@@H](NC(=O)[C@@H](N)CCCNC(=N)N)CSCCC(=O)N2CN3CN(C2)C(=O)CCSC[C@H](NC(=O)[C@@H]2CCCN2C1=O)C(=O)N[C@@H](CCCNC(=N)N)C(=O)N[C@@H](CCC(N)=O)C(=O)N[C@@H](CC(C)C)C(=O)N[C@@H](CCCNC(=N)N)C(=O)N[C@H](C(=O)N[C@@H](CCCNC(=N)N)C(=O)N[C@@H](Cc1c[nH]c2ccccc12)C(=O)O)CSCCC3=O (H-RCFRMPCRQLRCRW-OH; linker 2-7-12 via TATA) | > 3000 nM
CC(C)C[C@@H]1NC(=O)[C@H](CCC(N)=O)NC(=O)[C@H](CCCNC(=N)N)NC(=O)[C@@H]2CSCCC(=O)N3CN(CN(C3)C(=O)CCSC[C@H](NC(=O)[C@@H](N)CCCNC(=N)N)C(=O)N[C@@H](Cc3ccccc3)C(=O)N[C@@H](CCCNC(=N)N)C(=O)N[C@@H](CC(C)(C)C)C(=O)N3CCC[C@H]3C(=O)N2)C(=O)CCSC[C@@H](C(=O)N[C@@H](CCCNC(=N)N)C(=O)N[C@@H](Cc2c[nH]c3ccccc23)C(=O)O)NC(=O)[C@H](CCCNC(=N)N)NC1=O (H-RCFR[tBuAla]PCRQLRCRW-OH; linker 2-7-12 via TATA) | > 3000 nM
CC(C)C[C@@H]1NC(=O)[C@H](CCC(N)=O)NC(=O)[C@H](CCCNC(=N)N)NC(=O)[C@@H]2CSCCC(=O)N3CN(CN(C3)C(=O)CCSC[C@H](NC(=O)[C@@H](N)CCCNC(=N)N)C(=O)N[C@@H](Cc3ccccc3)C(=O)N[C@@H](CCCNC(=N)N)C(=O)N[C@@H](CC(C)C)C(=O)N3CCC[C@H]3C(=O)N2)C(=O)CCSC[C@@H](C(=O)N[C@@H](CCCNC(=N)N)C(=O)N[C@@H](Cc2c[nH]c3ccccc23)C(=O)O)NC(=O)[C@H](CCCNC(=N)N)NC1=O (H-RCFRLPCRQLRCRW-OH; linker 2-7-12 via TATA) | 10.2 nM
CC(C)C[C@@H]1NC(=O)[C@H](CCC(N)=O)NC(=O)[C@H](CCCNC(=N)N)NC(=O)[C@@H]2CSCCC(=O)N3CN(CN(C3)C(=O)CCSC[C@H](NC(=O)[C@@H](N)CCCNC(=N)N)C(=O)N[C@@H](Cc3ccc(-c4ccccc4)cc3)C(=O)N[C@@H](CCCNC(=N)N)C(=O)N[C@@H](CC(C)C)C(=O)N3CCC[C@H]3C(=O)N2)C(=O)CCSC[C@@H](C(=O)N[C@@H](CCCNC(=N)N)C(=O)N[C@@H](Cc2c[nH]c3ccccc23)C(=O)O)NC(=O)[C@H](CCCNC(=N)N)NC1=O | > 1000 nM
